Experimental data published in patent US5451571A (The Cleveland Clinic Foundation, priority 1994, dated 1995).
Entries after “also recorded” stand apart in the source; their conditions may differ.

Legend:
[1] = molecular target: T1, angiotensin converting enzyme (ACE) (Canis lupus familiaris, UniProt A0A8I3S3I6); assay: ACE activity assay (Hip-His-Leu, fluorometric) in dog brain tissue homogenates; type: biochemical; details: 10 μM MK 422; read-out: inhibition of product released (ACE activity)
T1 construct: The ACE activity was determined by incubating 10 μl of the supernatants; from tissue; host or cells: dog brainstem, spinal cord, choroid plexus and neurohypophysis punches
T1 sequence (A0A8I3S3I6 31-1241): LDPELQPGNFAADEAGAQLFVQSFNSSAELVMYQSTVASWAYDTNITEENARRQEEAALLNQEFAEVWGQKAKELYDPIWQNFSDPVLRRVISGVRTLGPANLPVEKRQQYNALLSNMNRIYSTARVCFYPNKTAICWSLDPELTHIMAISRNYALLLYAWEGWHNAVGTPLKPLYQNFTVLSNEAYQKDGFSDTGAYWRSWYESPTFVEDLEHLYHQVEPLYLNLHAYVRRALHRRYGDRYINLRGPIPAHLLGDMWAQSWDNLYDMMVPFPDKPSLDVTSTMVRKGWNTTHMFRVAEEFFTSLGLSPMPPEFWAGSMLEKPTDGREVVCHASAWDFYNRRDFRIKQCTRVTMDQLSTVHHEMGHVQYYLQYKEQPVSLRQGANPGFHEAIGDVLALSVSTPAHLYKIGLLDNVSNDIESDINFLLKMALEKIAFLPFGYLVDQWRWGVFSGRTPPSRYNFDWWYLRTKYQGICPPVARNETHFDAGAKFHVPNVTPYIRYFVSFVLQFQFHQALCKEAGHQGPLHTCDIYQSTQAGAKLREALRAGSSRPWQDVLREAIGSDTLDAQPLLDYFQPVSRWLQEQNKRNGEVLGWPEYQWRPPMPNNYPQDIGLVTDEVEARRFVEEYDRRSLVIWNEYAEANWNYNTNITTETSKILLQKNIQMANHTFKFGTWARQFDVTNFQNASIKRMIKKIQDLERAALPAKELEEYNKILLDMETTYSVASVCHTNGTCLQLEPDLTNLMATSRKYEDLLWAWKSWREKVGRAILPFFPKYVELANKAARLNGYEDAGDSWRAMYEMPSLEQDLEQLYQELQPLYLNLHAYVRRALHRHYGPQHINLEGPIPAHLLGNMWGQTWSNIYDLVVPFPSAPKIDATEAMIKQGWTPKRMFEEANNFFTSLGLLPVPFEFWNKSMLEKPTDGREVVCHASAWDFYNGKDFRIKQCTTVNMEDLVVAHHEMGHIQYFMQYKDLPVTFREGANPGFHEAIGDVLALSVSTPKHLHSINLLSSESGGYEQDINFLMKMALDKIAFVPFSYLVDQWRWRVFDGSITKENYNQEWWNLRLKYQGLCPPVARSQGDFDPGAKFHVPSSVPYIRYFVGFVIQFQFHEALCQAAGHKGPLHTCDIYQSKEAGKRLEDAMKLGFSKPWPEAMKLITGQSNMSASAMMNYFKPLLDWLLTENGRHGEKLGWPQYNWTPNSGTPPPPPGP
Description: Larger tissue samples were homogenized to a final concentration of 100 mg tissue ml/buffer. The homogenates were centrifuged at 18,000 g for two minutes at 4° C. The ACE activity was determined by incubating 10 μl of the supernatants with 500 μl of an assay solution containing 5 mM Hip-His-Leu (Sigma Chemical, St. Louis, Mo., USA) in 0.4 M sodium borate buffer, pH 8.3, and 0.9 M NaCl for 15 minutes at 37° C.) (Santos R. A. S., Krieger, E. M., Greene, L. J., An Improved Fluorometric Assay of Rat Serum and Plasma Converting Enzyme. […] The product His-Leu was measured fluorometrically (365 nm excitation, 495 emission; Aminco spectrofluorometer, American Instruments, Silver Springs, Md., USA). In punches obtained from the brainstem, neurohypophysis, and choroid plexus, the rate of reaction was linear over a 20-minute period and with the volume of the sample assayed (5-15 ul). Under these conditions, hydrolysis of the product His-Leu (Sigma) was less than 6% as evaluated indirectly fluorometry (Santos, et al. supra). […] Tissue ACE specific activity was expressed as units corresponding to 1 nmol/min/mg protein.

[2] = molecular target: T1, angiotensin converting enzyme (ACE); assay: Tissue ACE activity in dog brain six hours after i.v. MK 422; type: in vivo; details: six hours after MK 422 10 mg/kg i.v.
Description: Experiments were performed on fourteen mongrel dogs weighing 16±2 kg and anesthetized with sodium pentobarbital (30 mg/kg i.v.). […] Ten of the fourteen dogs were given a lethal dose of sodium pentobarbital, and the brain and thoracic portion of the spinal cord (C6-T3) were excised immediately. The brain was removed from four other dogs six hours after a single injection of MK 422 (enalaprilat) at a dose of 10 mg/kg i.v.
Coronal sections (2000 μm thick) from either the brainstem or the spinal cord were laid on a frozen Petri dish placed under the operating microscope. […] Punches from coronal sections of the intermediolateral column of the spinal cord were obtained between C6 and T3. Blocks of tissue were also taken from the area postrema at the obex, the neurohypophysis, and the choroid plexus in the fourth ventricle. Remaining coronal tissue sections were analyzed separately. All tissue samples were kept on dry ice and stored at -70° C. until assayed.
The ACE activity and angiotensin metabolism were measured in tissue samples obtained from five control and four MK 422-treated dogs.
Larger tissue samples were homogenized to a final concentration of 100 mg tissue ml/buffer. The homogenates were centrifuged at 18,000 g for two minutes at 4° C. The ACE activity was determined by incubating 10 μl of the supernatants with 500 μl of an assay solution containing 5 mM Hip-His-Leu (Sigma Chemical, St. Louis, Mo., USA) in 0.4 M sodium borate buffer, pH 8.3, and 0.9 M NaCl for 15 minutes at 37° C.) (Santos R. A. S., Krieger, E. M., Greene, L. J., An Improved Fluorometric Assay of Rat Serum and Plasma Converting Enzyme. […] The product His-Leu was measured fluorometrically (365 nm excitation, 495 emission; Aminco spectrofluorometer, American Instruments, Silver Springs, Md., USA). […] Under these conditions, hydrolysis of the product His-Leu (Sigma) was less than 6% as evaluated indirectly fluorometry (Santos, et al. supra). […] Tissue ACE specific activity was expressed as units corresponding to 1 nmol/min/mg protein.

[3] = tested on: spontaneously hypertensive rats (SHR); assay: Blood angiotensin peptides (RIA) after i.v. Ang I in conscious SHR with enzyme inhibitors; type: in vivo, rat
Description: (§1) All experiments were carried out in strict adherence to the principles sponsored by the American Physiological Society. Male 16-week-old SHR(319±4 gm) and WKY(315±4 gm) controls (Charles River, Wilmington, Mass.) were housed in rooms maintained on a 12 hr light-dark cycle. Animals ate a solid diet of rat chow (Purina, Bedford, Ohio) and had free access to water. Cannulas (PE-50 and PE-10, Clay Adams Becton Dickinson, Parsippany, N.J.) were implanted into a femoral artery and vein using aseptic conditions in rats anesthetized with 1% halothane 24 hours beforehand. The free ends of the cannulas were tunneled under the skin and externalized at the back of the neck.
(§2) Conscious rats were divided into five groups. Group I (n=4 SHR and 4 WKY) received an i.v. injection of 0.9% NaCl. Group II (n=4 SHR and 4 WKY) was given an i.v. injection of enalaprilat (MK-422,2 mg/kg). Group III (n=4 SHR and 4 WKY) was injected with (N-{N-[1-(S)-carboxy-3-phenylpropyl]-(S)-phenylalanyl}-(S)-isoserine) at a dose of 15 mg/kg. […] Group IV (n=4 SHR and 4 WKY) received both MK-422 (2 mg/kg) and SCH 39,370 (15 mg/kg). Group V (n=3 SHR and 3 WKY) were given MK- 422 (2 mg/kg) and Z-prolyl-prolinal (5 mg/kg), a specific inhibitor of prolyl endopeptidase (Friedman TC, Orlowski M, Wilk S: Prolyl Endopeptidase: Inhibition in vivo by N-benzyloxycarbonyl-prolyl-prolinal. J. Neurochem. 42:237-241,1984). Either saline (vehicle) or the enzyme inhibitors were administered 20 minutes before an i.v. injection of 0.2 ml of Ang I (2 nmol) in heparinized saline. Serial samples of arterial blood (0.2 ml) were rapidly collected into ice-chilled tubes containing 5 ml of 80% ethanol/0.1N HCL every 15-30 sec before and after injection of Ang I. The amount of blood removed in each sample was replaced with an equal volume of saline. The dead space (0.08 ml) of the femoral artery catheter was cleared of any remaining saline or blood before obtaining the samples.
(§3) Peptide Extraction and Analyses: Samples were centrifuged at 5,000 g for 20 minutes; the supernatant was stored for 12 hours at -20° C. After a second centrifugation step (10,000 g, 20 min) the supernatant was diluted 1:1 (V:V) with 1% heptaflurobutyric acid (HFBA), stored for 4-6 […] hours at 4° C., and centrifuged again at 15,000 g. This supernatant was further diluted 1:4 with 0.2% HFBA and concentrated on a Sep-Pak Vac Cartridge (Millipore Co., Milford, Mass.) activated beforehand with 3 ml of 60% acetonitrile/0.2% HFBA, 3 ml of 0.1% bovine serum albumin in 0.2% HFBA, and 5 ml of HFBA. After application of the supernatant, the column was washed with 10 ml of 0.2% HFBA. Angiotensin peptides were eluted with 8 ml of 60% acetonitrile/0.2% HFBA. Fractions were evaporated to dryness in a vacuum centrifuge (Savant Instrument Inc., Hicksville, N.Y.) for measurements by radioimmunoassay (RIA). Different aliquots of the samples were assayed to ensure linearity. Peptide recovery for Ang I added to the acid ethanol solution prior to blood sample averaged 85±4%, n=6, SFM): peptide values were not corrected for recovery. Moreover, no in vitro conversion of Ang I into either Ang-(1-7) or Ang II was observed.
(§4) The RIAs employed by the inventors to determine concentrations of Ang I, Ang II, and Ang-(1-7) are described in detail elsewhere. See, Chappell MC, Brosnihan KB, Diz DI, Ferrario CM: Identification of Angiotensin-(1-7) in Rat Brain: Evidence for Differential Processing of Agiotensin Peptides. J. Biol. Chem. […]:16518-16523,1989; and, Kohara K, Brosnihan KB, Chappell MC, Khosla MC, Ferrario CM: Angiotensin-(1-7): A Member of Circulating Angiotensin Peptides. Hypertension 17:131-138, 1991. […] The sensitivity of the Ang I assay (defined as twice the minimum detection level) averaged 5 fmol/tube. The Ang II antibody was produced by the inventors. […] The sensitivity of the Ang II RIA is 0.5 fmol/tube. The antibody of Ang-(1-7) (Core No. 1) was obtained in the inventors laboratory. […]

[4] = tested on: Wistar Kyoto (WKY) rats; assay: Blood angiotensin peptides (RIA) after i.v. Ang I in conscious WKY with enzyme inhibitors; type: in vivo, rat
Description: as §1, §2, §3, §4

[5] = tested on: prolylendopeptidase; assay: 125I-Ang-(1-7) production from 125I-Ang I in dog hypothalamus homogenates (HPLC); type: biochemical
Description: As a result of these discoveries, the enzyme(s) involved in the production of Ang-(1-7) in homogenates (20 mM TRIS HCl buffer, pH 7.5) of dog hypothalamus were evaluated.

[6] = tested on: NG108 cells; assay: Ang-(1-7) production from Ang I in NG108 cells; type: cell-based
[7] = tested on: SHR; assay: Blood pressure effect of SCH 39,370 in SHR; type: in vivo, rat
[8] = tested on: NEP 24.11; details: cited from earlier work
[9] = molecular target: ACE (Homo sapiens, UniProt P12821); details: cited from earlier work
Chain of ACE (P12821 30-1306, species assumed): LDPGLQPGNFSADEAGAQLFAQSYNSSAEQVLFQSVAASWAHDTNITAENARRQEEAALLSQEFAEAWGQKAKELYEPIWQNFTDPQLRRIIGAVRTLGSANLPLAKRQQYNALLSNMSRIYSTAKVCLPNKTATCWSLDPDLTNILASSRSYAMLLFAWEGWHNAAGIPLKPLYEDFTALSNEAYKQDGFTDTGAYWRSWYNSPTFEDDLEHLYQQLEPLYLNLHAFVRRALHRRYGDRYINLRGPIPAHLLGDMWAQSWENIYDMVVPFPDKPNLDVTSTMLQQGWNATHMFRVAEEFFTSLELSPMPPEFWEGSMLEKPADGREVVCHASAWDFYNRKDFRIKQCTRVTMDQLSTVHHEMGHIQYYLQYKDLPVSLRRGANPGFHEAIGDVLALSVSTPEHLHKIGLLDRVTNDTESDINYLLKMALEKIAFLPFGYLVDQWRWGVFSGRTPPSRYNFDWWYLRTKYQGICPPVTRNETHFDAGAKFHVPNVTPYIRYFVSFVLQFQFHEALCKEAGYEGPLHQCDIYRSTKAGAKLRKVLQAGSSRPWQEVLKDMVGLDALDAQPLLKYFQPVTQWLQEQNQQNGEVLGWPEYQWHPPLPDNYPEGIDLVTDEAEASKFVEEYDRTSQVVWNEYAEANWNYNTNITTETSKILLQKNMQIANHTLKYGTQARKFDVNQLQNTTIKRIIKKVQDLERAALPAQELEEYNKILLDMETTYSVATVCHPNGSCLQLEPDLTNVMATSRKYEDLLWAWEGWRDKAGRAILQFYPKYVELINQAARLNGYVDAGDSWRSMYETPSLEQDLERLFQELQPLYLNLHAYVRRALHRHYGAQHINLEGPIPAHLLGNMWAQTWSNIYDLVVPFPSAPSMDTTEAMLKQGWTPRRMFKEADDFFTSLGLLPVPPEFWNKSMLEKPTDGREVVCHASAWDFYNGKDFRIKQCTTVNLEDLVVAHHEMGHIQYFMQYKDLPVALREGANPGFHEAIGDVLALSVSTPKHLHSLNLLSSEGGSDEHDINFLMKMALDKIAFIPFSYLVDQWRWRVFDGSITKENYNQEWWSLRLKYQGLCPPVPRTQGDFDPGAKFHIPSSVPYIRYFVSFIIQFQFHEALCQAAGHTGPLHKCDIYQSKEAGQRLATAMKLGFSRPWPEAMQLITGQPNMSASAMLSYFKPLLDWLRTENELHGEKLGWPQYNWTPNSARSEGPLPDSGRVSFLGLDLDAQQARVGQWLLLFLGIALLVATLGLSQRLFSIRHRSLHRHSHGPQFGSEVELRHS

[10] = molecular target: T2, carboxypeptidase A (Homo sapiens, UniProt P15085); details: cited from earlier work
T2 sequence (P15085 111-419): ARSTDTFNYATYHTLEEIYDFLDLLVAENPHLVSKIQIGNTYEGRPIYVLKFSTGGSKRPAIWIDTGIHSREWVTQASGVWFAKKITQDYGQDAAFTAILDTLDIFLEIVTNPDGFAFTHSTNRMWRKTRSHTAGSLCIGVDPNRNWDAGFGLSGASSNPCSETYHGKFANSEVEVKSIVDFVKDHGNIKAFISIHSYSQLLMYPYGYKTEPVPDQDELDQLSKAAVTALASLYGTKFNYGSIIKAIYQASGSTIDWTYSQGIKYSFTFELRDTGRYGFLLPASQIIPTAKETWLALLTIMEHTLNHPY

[11] = tested on: DOCA-salt hypertensive rats; details: cited from earlier work

For `C[C@H](N[C@@H](CCc1ccccc1)C(=O)O)C(=O)N1CCC[C@H]1C(=O)O` [MK 422, enalaprilat], the inhibition at 10 µM [1] was 98%, the “ACE activity in homogenates from the choroid plexus” value [2] was 14.9±0.6 U and the “ACE activity in other regions of the brainstem” value [2] was “did not change”. The “ACE activity in the A2 region (between -2 and +4 mm of the obex)” value ([2]; untreated controls 22.5±1.6 U) was 16.7±1.7 U, the “increase of peak Ang-(1-7) over values found in control rats” value ([3]; SHR, MK-422 2 mg/kg) was “three-fold” and the “Ang II formation / production” value ([3]; SHR, after Ang I 2 nmol i.v.) was “eliminated”. For the same compound, the “increase of peak Ang-(1-7) over values found in control rats” value ([4]; MK-422 2 mg/kg) was “two-fold” and the “Ang II formation / production” value ([4]; after Ang I 2 nmol i.v.) was “eliminated”.

With `CC(C)C[C@H](NP(=O)(O)O[C@@H]1O[C@@H](C)[C@H](O)[C@@H](O)[C@H]1O)C(=O)N[C@@H](Cc1c[nH]c2ccccc12)C(=O)O` [Phosphoramidon] the “inhibition of Ang-(1-7) formation” value [5] was 12%, the “production of Ang-(1-7) in the presence of the inhibitor” value ([5]; canine hypothalamic homogenates) was “not inhibited” and the “production of Ang-(1-7) in the presence of the inhibitor” value [6] was “not inhibited”.

For `O=C(O)[C@H](CCc1ccccc1)N[C@@H](Cc1ccccc1)C(=O)NC[C@H](O)C(=O)O` [SCH 39,370, N-{N-[1-(S)-carboxy-3-phenylpropyl]-(S)-phenylalanyl}-(S)-isoserine], the “reduction of peak levels of Ang-(1-7) below vehicle” value ([3]; SHR) was 74%, the “peak level of Ang I in blood” value ([3]; SHR, 15 seconds after Ang I 2 nmol i.v., saline (label Ang I) or SCH 39,370 15 mg/kg 20 minutes before) was 6.2 ± 0.4 pmol/mL and the “peak level of Ang II in blood” value ([3]; SHR, 15 seconds after Ang I 2 nmol i.v., saline (label Ang I) or SCH 39,370 15 mg/kg before) was 27.2 ± 3.8 pmol/mL. For the same compound, the “change of baseline and peak plasma levels of Ang II” value ([3]; SHR, SCH 39,370) was “double”, the “formation / levels of Ang-(1-7) versus vehicle” value ([3]; SHR, SCH 39,370 15 mg/kg alone, difference statistically significant) was “decreased; also recorded: inhibited the formation of Ang-(1-7)” and the “baseline level of Ang II” value ([3]; SHR, after SCH 39,370 15 mg/kg, before 0.02±0.02) was 0.18 ± 0.04 pmol/mL. The “inhibition of Ang-(1-7) production at larger doses” value ([3]; preliminary experiments, doses above 15 mg/kg, strain not stated) was “no further inhibition”, the “reduction of peak levels of Ang-(1-7) below vehicle” value [4] was 51% and the “peak level of Ang I in blood” value ([4]; 15 seconds after Ang I 2 nmol i.v., saline (label Ang I) or SCH 39,370 15 mg/kg 20 minutes before) was 4.3 ± 0.4 pmol/mL. For the same compound, the “peak level of Ang II in blood” value ([4]; 15 seconds after Ang I 2 nmol i.v., saline (label Ang I) or SCH 39,370 15 mg/kg before) was 21.8 ± 5.4 pmol/mL, the “change of baseline and peak plasma levels of Ang II” value ([4]; SCH 39,370) was “double” and the “formation of Ang-(1-7) versus vehicle” value ([4]; SCH 39,370 15 mg/kg alone, difference not significant (p>0.05)) was “inhibited the formation of Ang-(1-7)”. The “baseline level of Ang II” value ([4]; after SCH 39,370 15 mg/kg, before 0.04±0.02) was 0.12 ± 0.04 pmol/mL, the “effect on blood pressure” value [7] was “did not reduce blood pressure” and the “inhibition of NEP 24.11” value [8] was “specific and potent inhibitor”. The “inhibition of ACE” value [9] was “does not inhibit”, the “inhibition of carboxypeptidase A” value [10] was “does not inhibit” and the “effect on blood pressure” value [11] was “antihypertensive effects”.
